Experimental data published in the NIST ThermoML archive (doi:10.1021/je900648p).
Numbers after ± are expanded uncertainties.

Assays:
[1] = 101.33 kPa, Liquid, Hot wire method
[2] = molar heat capacity at constant pressure; conditions: 101.33 kPa, Liquid, Small sample (50 mg) DSC

CCCCn1cc[n+](C)c1.F[P-](F)(F)(F)(F)F [1-butyl-3-methylimidazolium hexafluorophosphate]
Conditions | molar heat capacity at constant pressure [J/K/mol] | thermal conductivity [W/m/K]
[1], 293 K | – | 0.145 ± 0.01
[1], 303 K | – | 0.145 ± 0.01
[1], 313 K | – | 0.145 ± 0.01
[1], 323 K | – | 0.144 ± 0.01
[1], 333 K | – | 0.143 ± 0.01
[1], 343 K | – | 0.143 ± 0.01
[1], 353 K | – | 0.143 ± 0.01
[2], 308.16 K | 410.64 ± 8.2 | –
[2], 313.16 K | 413.48 ± 8.3 | –
[2], 318.16 K | 417.74 ± 8.3 | –
[2], 323.16 K | 422.01 ± 8.4 | –
[2], 328.22 K | 423.43 ± 8.5 | –
[2], 333.22 K | 426.27 ± 8.5 | –
[2], 338.19 K | 429.11 ± 8.6 | –
[2], 343.18 K | 433.37 ± 8.7 | –
[2], 348.25 K | 436.22 ± 8.7 | –
[2], 353.18 K | 439.06 ± 8.8 | –
[2], 358.25 K | 441.9 ± 8.8 | –
[2], 363.18 K | 443.32 ± 8.9 | –
[2], 368.17 K | 444.74 ± 8.9 | –
[2], 373.21 K | 447.58 ± 8.9 | –
[2], 378.2 K | 450.43 ± 9 | –
[2], 383.17 K | 454.69 ± 9.1 | –
[2], 388.2 K | 457.53 ± 9.2 | –
[2], 393.17 K | 460.37 ± 9.2 | –
[2], 398.2 K | 463.21 ± 9.3 | –
[2], 403.2 K | 468.9 ± 9.4 | –
[2], 408.16 K | 470.32 ± 9.4 | –
[2], 413.19 K | 471.74 ± 9.4 | –
[2], 418.19 K | 473.16 ± 9.5 | –
[2], 423.22 K | 474.58 ± 9.5 | –

CCCCCCn1cc[n+](C)c1.F[B-](F)(F)F [1-hexyl-3-methylimidazolium tetrafluoroborate]
[1]
Conditions | thermal conductivity [W/m/K]
293 K | 0.158 ± 0.01
303 K | 0.157 ± 0.01
313 K | 0.156 ± 0.01
323 K | 0.155 ± 0.01
333 K | 0.153 ± 0.01
343 K | 0.152 ± 0.01
353 K | 0.151 ± 0.01

CCCC[N+]1(C)CCCC1.O=S(=O)([N-]S(=O)(=O)C(F)(F)F)C(F)(F)F
[1]
Conditions | thermal conductivity [W/m/K]
293 K | 0.118 ± 0.01
303 K | 0.118 ± 0.01
313 K | 0.118 ± 0.01
323 K | 0.117 ± 0.01
333 K | 0.117 ± 0.01

CCCCn1cc[n+](C)c1.F[B-](F)(F)F [1-butyl-3-methylimidazolium tetrafluoroborate]
[2]
Conditions | molar heat capacity at constant pressure [J/K/mol]
308.16 K | 367.26 ± 7.3
313.16 K | 367.64 ± 7.3
318.16 K | 370.39 ± 7.4
323.16 K | 371.89 ± 7.4
328.22 K | 373.73 ± 7.5
333.22 K | 375.92 ± 7.5
338.19 K | 377.15 ± 7.5
343.18 K | 380.16 ± 7.6
348.25 K | 382.69 ± 7.7
353.18 K | 384.8 ± 7.7
358.25 K | 386.99 ± 7.7
363.18 K | 389.18 ± 7.8
368.17 K | 390 ± 7.8
373.21 K | 390.04 ± 7.8
378.2 K | 392.18 ± 7.8
383.17 K | 393.64 ± 7.9
388.2 K | 395.28 ± 7.9
393.17 K | 396.49 ± 7.9
398.2 K | 397.93 ± 8
403.2 K | 400.74 ± 8
408.16 K | 403.88 ± 8.1
413.19 K | 403.49 ± 8.1
418.19 K | 404.98 ± 8.1
423.22 K | 406.62 ± 8.1
